Counter-ions that a name gives are not always drawn.
Tests used:
Type in all cases: cell-based
[1] = system: BaF2 BCR-Ab1 (Mouse pro-B-cell transformed with BCR-Ab1 fusion); experiment: Cellular Proliferation Assay, cell line H; details: BaF2 BCR-Ab1, 72 hours, CelltiterBlue, read-out: Cell Line H antiproliferative IC50
Procedure: (§1) The assay for determination of the antiproliferative activity of multiple Pim inhibitors in the JAK2-driven cell lines was conducted as follows. Cells were plated out to 96-well plates at an initial density of 10,000 cells/well in 95 pt. Compounds were prepared at […] in DMSO by conducting 3-fold serial dilutions to give a 10-point dosing curve having a high dose of 1000 μM. Aliquots (5 μt) of these dilutions were then transferred to the appropriate wells of the 96-well plates containing cells to yield a final DMSO concentration of 0.5%. The cells were then incubated with compound for 72 hours at 37° C., 5% CO2. CelltiterBlue reagent (Promega, Catalog #: G8080) was then added (20 μL/well) and incubated at 37° C., 5% CO2 for 1-8 hours depending on the cell line being analyzed. The plate was then quantified employing a fluorescence plate reader (Model: Gemini [Molecular Devices]; Settings: 560 nm (Ex)/590 nm (Em) 570 nm (cut-off) [CellTiter Blue Assay].
(§2) The values for each well were then converted to a percent of untreated control (POC). These POC values were then plotted as a function of compound concentration. A 4-parameter curve-fit analysis was performed for each compound dilution and an IC50 value was calculated from this curve.
(§3) Cell lines • A: PC3 (Androgen independent prostate cancer) • B: K562 (Ph+chronic myelogenous leukemia) • C: MV4-11 (Acute myelogenous leukemia) • D: BxPC3 (Pancreatic Cancer) • E: HepG2 (Hepatocellular Carcinoma) • F: BaF3 (Mouse pro-B-cell line) • G: BaF3 TEL-JAK2 (Mouse pro-B-cell transformed with TEL-JAK2 fusion) • H: BaF2 BCR-Ab1 (Mouse pro-B-cell transformed with BCR-Ab1 fusion)

CD4+ T cells [2] = experiment: T Cell in vitro Functional Assay (D): IL-22 production; details: Mus musculus; CD4+ T cells cultured with IL-6/TGFβ, IL-23 stimulation 18 hours, ELISA
Procedure: (§4) The in vitro assays to assess the effects of the compounds of Examples 16, 18 and 26 on T cells were conducted as described in assays A, B, C and D below. CD4+ T cells were isolated from red blood cell-depleted splenocytes of C57B1/6J mice (Jackson Laboratories, catalog #000664) using CD4+ T cell isolation kit (Miltenyi, catalog #130-090-860).
In assay (D), 1,000,000 cells/mL of purified CD4+ T cells were mixed with 1 μg/mL anti-CD28, 50 ng/mL IL-6 (R&D Systems cat #406-ML-025/CF), 1 ng/mL TGFβ (R&D Systems cat #303-B2-002), 2 μg/mL anti-IL-4 (R&D Systems cat #AB-404-NA), 2 μg/mL anti-IFNγ (R&D Systems cat #AB-485-NA) and placed into plates coated with 1 μg/mL anti-CD3. After 4 days, cells were harvested, washed and 100,000 cells were plated into 96 well plate. A dilution series of compounds were prepared at 200× the final concentration in DMSO, then 10× stocks were prepared by dilution in cell culture media. 10 μL of 10× stocks were added to the cells in the 96 well plate. After 2 hours, 50 ng IL-23 (R&D Systems catalog #1887-ML-010/CF) was added to each well and 18 hours later supernatants were removed and tested for IL-22 levels by ELISA (R&D Systems catalog #M2200). ELISA plates were quantified relative to a standard curve using Molecular Devices Versamax Reader at […] and Softmax Pro software.
(§5) For each of assays A, B, C and D, the values for each well were converted to a percent of vehicle-treated (DMSO) control (POC). These POC values were plotted as a function of compound concentration and an IC50 calculated using a 4-parameter curve-fit analysis program.

[3] = system: PC3 (Androgen independent prostate cancer); experiment: Cellular Proliferation Assay, cell line A; details: PC3, 72 hours, CelltiterBlue; read-out: Cell Line A antiproliferative IC50
Procedure: as §1, §2, §3

[4] = system: BaF3 (Mouse pro-B-cell line); experiment: Cellular Proliferation Assay, cell line F; details: BaF3, 72 hours, CelltiterBlue, read-out: Cell Line F antiproliferative IC50
Procedure: as §1, §2, §3

CD4+ T cells [5] = experiment: T Cell in vitro Functional Assay (A): proliferation; details: Mus musculus, anti-CD3/anti-CD28, 40 hours
Procedure: as §4
In assay (A), purified CD4+ T cells were plated in 96 well plates at 90000 cells/well in 90 μL. A dilution series of the compounds of Examples 16, 18 and 26 were prepared at 100× the final concentration in DMSO and then diluted 10-fold into complete media (10× stocks). 10 μL of 10×compound stocks were added to appropriate wells of 96 well plates containing cells and incubated for 1 hour at 37° C., 5% CO2. The cell/compound mixtures were then transferred to a 96 well plate coated with anti-CD3 mAb (1 μg/mL; BD Pharmingen, catalog #553057) and soluble anti-CD28 mAb (1 μg/mL; BD Pharmingen, catalog #553294) was added. Plates were cultured at 37° C., 5% CO2 for 40 hours. 20 μL of the culture were removed for determination of proliferation using the CellTitre-Glo™ luminescent assay (Promega, Catalog #G7571) according to the manufacturer's protocol. The plate was quantified on a Packard TopCount instrument using luminescence protocol and data was analyzed using Prism software.
as §5

CD4+ T cells [6] = experiment: T Cell in vitro Functional Assay (C): IL-4 production; details: Mus musculus; CD4+ T cells cultured with IL-4/anti-IFNγ, anti-CD3 restimulation 18 hours, ELISA
Procedure: as §4
In assay (C), 1000000 cells/mL of purified CD4+ T cells were mixed with 1 μg/mL anti-CD28, 10 ng/mL IL-4 (R&D Systems cat #404-ML-010/CF) and 2 μg/mL anti-IFNγ (R&D Systems cat #AB-485-NA) and placed into plates coated with 1 μg/mL anti-CD3. After 5 days, cells were harvested, washed and incubated overnight at 37° 5% CO2. The following day, 50,000 cells were plated into each well of a 96 well plate. A dilution series of compounds were prepared at 200× the final concentration in DMSO, then 10×stocks were prepared by dilution in cell culture media. 10 μL of 10× stocks were added to the cells in the 96 well plate and incubated for 2 hours at 37° C., 5% CO2. Cell/compound mixtures were then transferred to well coated with 0.1 μg anti-CD3 and incubated at 37° C., 5% CO2. Culture supernatants were removed 18 hours later and tested for IL-4 levels by ELISA (R&D Systems catalog #DY404). ELISA plates were quantified relative to a standard curve using Molecular Devices Versamax Reader at […] and Softmax Pro software.
as §5

[7] = system: K562 (Ph+chronic myelogenous leukemia); experiment: Cellular Proliferation Assay, cell line B; details: Homo sapiens; K562, 72 hours, CelltiterBlue; read-out: Cell Line B antiproliferative IC50
Procedure: as §1, §2, §3

SMILES	IC50 [1] [µM]	IC50 (CD4+ T cells [2]) [µM]	IC50 [3] [µM]	IC50 [4] [µM]	IC50 (CD4+ T cells [5]) [µM]	IC50 (CD4+ T cells [6]) [µM]	IC50 [7] [µM]
F[C@@H]1CNCCC1Oc1cccc2ccc(-c3nnc4ccccn34)nc12 (stereo in doubt) [Example 26, 2-([1,2,4]triazolo[4,3-a]pyridin-3-yl)-8-((cis)-3-fluoropiperidin-4-yloxy)quinoline dihydrochloride]	< 2	≤ 5	< 5	< 2	≤ 5	≤ 5	< 10
c1cc(OCC2CCCNC2)c2nc(-c3nnc4ccccn34)ccc2c1 (stereo not drawn) [Example 16, 2-([1,2,4]Triazolo[4,3-a]pyridin-3-yl)-8-(piperidin-3-ylmethoxy)quinoline]	< 5	≤ 1	< 5	< 2	≤ 1	≤ 1	< 10
CC(C)(CN)COc1cccc2ccc(-c3nnc4ccccn34)nc12 [Example 18, 3-(2-([1,2,4]Triazolo[4,3-a]pyridin-3-yl)quinolin-8-yloxy)-2,2-dimethylpropan-1-amine]	< 2	≤ 1	< 2	< 2	≤ 1	≤ 1	< 5

Source: US8575145B2, “Triazolopyridine compounds as PIM kinase inhibitors” (Array BioPharma Inc., priority 2008, dated 2013)
